Patent publication US6645938B2, “Protection against ischemia and reperfusion injury” (ZymoGenetics, Inc., priority 2000, dated 2003)

What was measured:
mouse vas deferens = experiment: Mouse vas deferens (m.v.d.) contractility assay; conditions: 6000 nM glibenclamide with 1000 nM compound-D
Procedure: Glibenclamide, a KATP channel blocker, blocked the inhibition of contraction of mouse vas deferens induced by compound-D SEQ ID NO:1. With reference to FIG. 8, the effect of administration of 1000 nM compound-D SEQ ID NO:1 alone (open bar) versus 1000 nM compound-D SEQ ID NO:1 with 6000 nM glibenclamide (hatched bar) on contractility of mouse vas deferens (m.v.d.) (n=6) is shown. Glibenclamide restored m.v.d. contractions which compound-D SEQ ID NO:1 had suppressed. […] (n=2).

[1] = test system: isolated perfused rat heart; experiment: Isolated perfused rat heart (Langendorff), 20 min global ischemia and 120 min reperfusion after 24 h pretreatment; type: in vivo
Procedure: Compound-D SEQ ID NO:1, at a dose of 2 mg/kg and solubilized as described above, was administered by tail vein injection into rats weighing between about 350-400 g (number of animals (n)=6). Control rats (n=6) were injected in the same manner with an equal volume of 0.9% NaCl. After 24 h, the hearts from both treated and control animals were excised and perfused in a modified Langendorff perfusion apparatus at 37° C. using oxygenated Krebs-Henseleit buffer as the perfusate, as known to one skilled in the art. Coronary perfusion pressure was maintained at […] by regulating coronary flow. All hearts were paced at […] (300 beats per minute, bpm) except during ischemia. A saline-filled balloon was inserted in the left ventricle to measure developed pressure (DP) and end-diastolic pressure (EDP) in mm Hg. After 15 min equilibration, both groups were subjected to 20 min zero-flow global ischemia, and then were reperfused for 120 min.
Left ventricles were isolated and divided into three segments along their short axis, stained with triphenyltetrazolium chloride, and stored in formalin. Infarct size was measured on digitized images and expressed as a percentage of myocardium. Data were expressed as mean plus or minus standard error of the mean (±SEM) and were analyzed using a paired Student's t-Test. Confidence limits were established at 95%. […]

SMILES | effect on inhibition of contraction induced by compound-D (mouse vas deferens) | effect of naltrexone on the cardioprotective effects of compound-D ([1]; FIG. 7, naltrexone 3 mg/kg combined with compound-D 2.0 mg/kg, 24 h prior to ischemia) | infarct size ([1]; FIG. 7 naltrexone study, pretreated 24 h prior to ischemia, compound-D 2.0 mg/kg, naltrexone 3 mg/kg, control about 27%)
COc1ccc(Cl)cc1C(=O)NCCc1ccc(S(=O)(=O)NC(=O)NC2CCCCC2)cc1 [Glibenclamide] | blocked | – | –
O=C1CC[C@@]2(O)[C@H]3Cc4ccc(O)c5c4[C@@]2(CCN3CC2CC2)[C@H]1O5 [naltrexone] | – | did not block | about 14.5%
